Laboratory results as given in patent US20240269128A1, “COMPOUNDS FOR TREATING OR PREVENTING ALZHEIMER'S DISEASE” (THE UNITED STATES OF AMERICA, as represented by the …, priority 2021, published 2024).

How the values were obtained:
[1] = tested on: hippocampal CA1 synapses of APP/PS1 mice; experiment: Late long-term potentiation, field recordings in hippocampal slices; parameters: species or system mouse; details: for impaired late-LTP: APP/PS1 slices
5xFAD mice = experiment: Plasma NfL in 5xFAD mice (NF-light ELISA); format: in vivo, mouse; details: compared to saline-treated transgenic mice
Method: HCQ nano (poly(L-lysine succinylated)-HCQ, or PLS-HCQ) preparation: 2.5 mL of saline were added to each vial of lyophilized material on each dose day and vortexed briefly to mix. Fresh vials were prepared daily. Solution was pale yellow in color and was protecedt from light. Remaining material was discardedafter animals were successfully dosed each day. […] 100 mg/kg, i.p. injection 10 μL/g b.w.
TUDCA preparation: Dissolved in saline; treatment dosage 500 mg/kg; i.p. injection 10 μL/g b.w.
Animal management: Animals were housed in individual ventilated cages on standardized rodent bedding supplied by Rettenmaier. Each cage contained a maximum of five mice. The temperature in the keeping room was maintained between 20 to 24° C. and the relative humidity was maintained between 45 to 65%. Animals were housed under a constant light-cycle (12 hours light/dark). […]
The NF-light® (Neurofilament-light) ELISA 10-7001 CE from UmanDiagnostics was used for analysis. The following samples were analyzed: terminal CSF, terminal blood plasma as well as all 4 timepoints from the in vivo bleedings from 6 animals per groups (3 groups; 18 animals, 108 samples in total). Samples were diluted (1:3 for plasma, 1:35 for CSF) in assay buffer and analyzed according to the manufacturers protocol. CSF and in vivo samples are analyzed in single replicates only, due to limited sample volume. […]

[2] = WT and APP/PS1 before and after HCQ

Structure (SMILES): C[C@H](CCC(=O)NCCS(=O)(=O)O)[C@H]1CC[C@H]2[C@@H]3[C@@H](O)C[C@@H]4C[C@H](O)CC[C@]4(C)[C@H]3CC[C@]12C [TUDCA, tauroursodeoxycholic acid]
- LTP in APP/PS1 mice ([1]; 100 μM TUDCA): no longer induced LTP
- peak plasma NfL levels (5xFAD mice; 500 mg/kg i.p.): partially lowered

Structure (SMILES): CCN(CCO)CCCC(C)Nc1ccnc2cc(Cl)ccc12 (centres unmarked) [HCQ, hydroxychloroquine]
- impaired late-LTP ([1]; 25 μM HCQ sulphate, bath-applied 60 min): partially rescued
- impaired late-LTP ([1]; 50 μM HCQ sulphate): fully rescued
- input-output (I/O) curves [1, 2]: did not show any significant differences
- paired pulse ratio (PPR) [1, 2]: did not show a significant difference
- L-LTP in wild type slices ([1]; wild type mice, 50 μM HCQ, vs untreated wild type): does not alter L-LTP
- peak in plasma NfL levels (5xFAD mice; 100 mg/kg i.p.): partially lowered
